Laboratory results reported in PubChem BioAssay (NCI).
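Growth conditions: 96-well plates. Treatment: test compound, 48 hours, 5 concentrations. Analysis: linear interpolation between bracketing concentrations; unreached endpoints set to highest concentration. The concentration for 50% growth inhibition is given as GI50. TGI is the concentration that stops growth completely.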

What was measured:
Assay in all cases: DTP human tumour cell line panel, 48 h
[1] = test system: LOX IMVI melanoma
[2] = test system: HCT-15 colon
[3] = test system: NCI-H226 lung
[4] = test system: IGROV1 ovarian
[5] = test system: UO-31 renal
[6] = test system: OVCAR-5 ovarian
[7] = test system: MDA-MB-435
[8] = test system: NCI-H23 lung
[9] = test system: SF-268 CNS
[10] = test system: K-562 leukemia
[11] = test system: SNB-75 CNS
[12] = test system: BT-549 breast
[13] = test system: M14 melanoma
[14] = test system: SNB-19 CNS
[15] = test system: COLO 205 colon
[16] = test system: MCF7 breast
[17] = test system: MALME-3M melanoma
[18] = test system: SF-295 CNS
[19] = test system: HOP-62 NSCLC
[20] = test system: A549 NSCLC
[21] = test system: MOLT-4 leukemia
[22] = test system: 786-0 renal
[23] = test system: OVCAR-3 ovarian
[24] = test system: SN12C renal
[25] = test system: CAKI-1 renal
[26] = test system: UACC-62 melanoma
[27] = test system: MDA-MB-468 breast
[28] = test system: HCT-116 colon
[29] = test system: A498 renal
[30] = test system: RPMI-8226 leukemia
[31] = test system: HL-60(TB) leukemia
[32] = test system: HT29 colon
[33] = test system: EKVX NSCLC
[34] = test system: SK-MEL-28 melanoma
[35] = test system: ACHN renal
[36] = test system: NCI-H522 lung
[37] = test system: TK-10 renal
[38] = test system: SK-MEL-5 melanoma
[39] = test system: T-47D breast
[40] = test system: HCC-2998 colon
[41] = test system: CCRF-CEM leukemia
[42] = test system: MDA-MB-231 breast
[43] = test system: SK-OV-3 ovarian
[44] = test system: PC-3 prostate
[45] = test system: HOP-92 NSCLC
[46] = test system: RXF 393 renal
[47] = test system: HS 578T breast
[48] = test system: DU-145 prostate
[49] = test system: UACC-257 melanoma
[50] = test system: OVCAR-8 ovarian
[51] = test system: SK-MEL-2 melanoma
[52] = test system: SF-539 CNS
[53] = test system: KM12 colon

**Q.** `Cn1cc(-c2cc3nc(-c4cn(C)c5ncc(Br)cc45)cc(N)n3n2)c2cc(Cl)ccc21` was tested. Which GI50 [1] did it give?
**A.** 1.61 µM

**Q.** And the TGI [1]?
**A.** 2.96 µM

**Q.** And the GI50 [2]?
**A.** 1.57 µM

**Q.** What about the TGI [2] of the same compound?
**A.** 3.16 µM

**Q.** What about the GI50 [3] of the same compound?
**A.** 1.99 µM

**Q.** And the TGI [3]?
**A.** 4.42 µM

**Q.** What about the GI50 [4] of the same compound?
**A.** 1.71 µM

**Q.** And the TGI [4]?
**A.** 3.38 µM

**Q.** What about the GI50 [5] of the same compound?
**A.** 1.54 µM

**Q.** What about the TGI [5] of the same compound?
**A.** 3.33 µM

**Q.** What about the GI50 [6] of the same compound?
**A.** 1.52 µM

**Q.** And the TGI [6]?
**A.** 3.39 µM

**Q.** What about the GI50 [7] of the same compound?
**A.** 1.76 µM

**Q.** What about the TGI [7] of the same compound?
**A.** 3.38 µM

**Q.** And the GI50 [8]?
**A.** 1.91 µM

**Q.** And the TGI [8]?
**A.** 3.98 µM

**Q.** What about the GI50 [9] of the same compound?
**A.** 2.11 µM

**Q.** What about the TGI [9] of the same compound?
**A.** 5.11 µM

**Q.** And the GI50 [10]?
**A.** 1.84 µM

**Q.** What about the TGI [10] of the same compound?
**A.** 5.5 µM

**Q.** And the GI50 [11]?
**A.** 1.75 µM

**Q.** And the TGI [11]?
**A.** 4.03 µM

**Q.** And the GI50 [12]?
**A.** 1.91 µM

**Q.** And the TGI [12]?
**A.** 4.24 µM

**Q.** And the GI50 [13]?
**A.** 1.71 µM

**Q.** What about the TGI [13] of the same compound?
**A.** 3.25 µM

**Q.** What about the GI50 [14] of the same compound?
**A.** 1.89 µM

**Q.** And the TGI [14]?
**A.** 3.83 µM

**Q.** And the GI50 [15]?
**A.** 2.56 µM

**Q.** What about the TGI [15] of the same compound?
**A.** 6.65 µM

**Q.** What about the GI50 [16] of the same compound?
**A.** 1.64 µM

**Q.** And the TGI [16]?
**A.** 3.25 µM

**Q.** What about the GI50 [17] of the same compound?
**A.** 1.74 µM

**Q.** And the TGI [17]?
**A.** 3.2 µM

**Q.** What about the GI50 [18] of the same compound?
**A.** 1.75 µM

**Q.** What about the TGI [18] of the same compound?
**A.** 3.43 µM

**Q.** What about the GI50 [19] of the same compound?
**A.** 1.72 µM

**Q.** And the TGI [19]?
**A.** 3.48 µM

**Q.** And the GI50 [20]?
**A.** 1.62 µM

**Q.** And the TGI [20]?
**A.** 3.54 µM

**Q.** What about the GI50 [21] of the same compound?
**A.** 1.71 µM

**Q.** And the TGI [21]?
**A.** 5.07 µM

**Q.** What about the GI50 [22] of the same compound?
**A.** 1.76 µM

**Q.** What about the TGI [22] of the same compound?
**A.** 3.2 µM

**Q.** And the GI50 [23]?
**A.** 1.63 µM

**Q.** What about the TGI [23] of the same compound?
**A.** 3.25 µM

**Q.** What about the GI50 [24] of the same compound?
**A.** 1.72 µM

**Q.** And the TGI [24]?
**A.** 3.44 µM

**Q.** What about the GI50 [25] of the same compound?
**A.** 1.45 µM

**Q.** What about the TGI [25] of the same compound?
**A.** 2.95 µM

**Q.** And the GI50 [26]?
**A.** 1.47 µM

**Q.** What about the TGI [26] of the same compound?
**A.** 2.85 µM

**Q.** And the GI50 [27]?
**A.** 1.32 µM

**Q.** What about the TGI [27] of the same compound?
**A.** 2.68 µM

**Q.** And the GI50 [28]?
**A.** 1.55 µM

**Q.** And the TGI [28]?
**A.** 2.96 µM

**Q.** And the GI50 [29]?
**A.** 7.39 µM

**Q.** What about the TGI [29] of the same compound?
**A.** 24 µM

**Q.** What about the GI50 [30] of the same compound?
**A.** 2.93 µM

**Q.** And the TGI [30]?
**A.** 9.38 µM

**Q.** And the GI50 [31]?
**A.** 1.99 µM

**Q.** What about the TGI [31] of the same compound?
**A.** 5.06 µM

**Q.** What about the GI50 [32] of the same compound?
**A.** 1.91 µM

**Q.** What about the TGI [32] of the same compound?
**A.** 3.62 µM

**Q.** What about the GI50 [33] of the same compound?
**A.** 1.48 µM

**Q.** And the TGI [33]?
**A.** 3.34 µM

**Q.** What about the GI50 [34] of the same compound?
**A.** 1.72 µM

**Q.** What about the TGI [34] of the same compound?
**A.** 3.23 µM

**Q.** And the GI50 [35]?
**A.** 1.55 µM

**Q.** What about the TGI [35] of the same compound?
**A.** 2.88 µM

**Q.** What about the GI50 [36] of the same compound?
**A.** 1.87 µM

**Q.** And the TGI [36]?
**A.** 3.84 µM

**Q.** What about the GI50 [37] of the same compound?
**A.** 1.6 µM

**Q.** What about the TGI [37] of the same compound?
**A.** 3.13 µM

**Q.** And the GI50 [38]?
**A.** 1.82 µM

**Q.** And the TGI [38]?
**A.** 4 µM

**Q.** What about the GI50 [39] of the same compound?
**A.** 1.58 µM

**Q.** What about the TGI [39] of the same compound?
**A.** 3.63 µM

**Q.** And the GI50 [40]?
**A.** 1.74 µM

**Q.** What about the TGI [40] of the same compound?
**A.** 3.17 µM

**Q.** What about the GI50 [41] of the same compound?
**A.** 2.87 µM

**Q.** And the TGI [41]?
**A.** 9.95 µM

**Q.** And the GI50 [42]?
**A.** 1.43 µM

**Q.** What about the TGI [42] of the same compound?
**A.** 2.89 µM

**Q.** And the GI50 [43]?
**A.** 13.7 µM

**Q.** And the TGI [43]?
**A.** 29.1 µM

**Q.** What about the GI50 [44] of the same compound?
**A.** 1.76 µM

**Q.** What about the TGI [44] of the same compound?
**A.** 4.09 µM

**Q.** What about the GI50 [45] of the same compound?
**A.** 1.86 µM

**Q.** What about the TGI [45] of the same compound?
**A.** 3.74 µM

**Q.** And the GI50 [46]?
**A.** 1.82 µM

**Q.** What about the TGI [46] of the same compound?
**A.** 3.47 µM

**Q.** And the GI50 [47]?
**A.** 1.89 µM

**Q.** What about the TGI [47] of the same compound?
**A.** 4.48 µM

**Q.** What about the GI50 [48] of the same compound?
**A.** 1.78 µM

**Q.** What about the TGI [48] of the same compound?
**A.** 3.61 µM

**Q.** What about the GI50 [49] of the same compound?
**A.** 1.71 µM

**Q.** What about the TGI [49] of the same compound?
**A.** 3.56 µM

**Q.** And the GI50 [50]?
**A.** 2.02 µM

**Q.** What about the TGI [50] of the same compound?
**A.** 4.96 µM

**Q.** And the GI50 [51]?
**A.** 1.93 µM

**Q.** And the TGI [51]?
**A.** 4.2 µM

**Q.** What about the GI50 [52] of the same compound?
**A.** 1.51 µM

**Q.** And the TGI [52]?
**A.** 2.88 µM

**Q.** And the GI50 [53]?
**A.** 1.49 µM

**Q.** What about the TGI [53] of the same compound?
**A.** 3.96 µM
